Test results: article PMC7265341, “Quantifying CDK inhibitor selectivity in live cells” (Nature Communications, 2020)
Where two headings read alike, the source gives them in different places.

Legend:
CDK1/Cyclin E1 = CDK1/Cyclin E1 (Homo sapiens, UniProt P06493); experiment: NanoBRET live-cell target engagement, CDK1-NanoLuc/Cyclin E1 in HEK-293; type: binding; settings: CDK1/E1, 10µM
CDK2/Cyclin E1 = CDK2/Cyclin E1 (Homo sapiens, UniProt P24941); experiment: NanoBRET live-cell target engagement, CDK2-NanoLuc/Cyclin E1 in HEK-293; type: binding; settings: CDK2/E1, 10µM
CDK3/Cyclin E1 = CDK3/Cyclin E1 (Homo sapiens, UniProt Q00526); experiment: NanoBRET live-cell target engagement, CDK3-NanoLuc/Cyclin E1 in HEK-293; type: binding; settings: CDK3/E1, 10µM
CDK4/Cyclin D1 = CDK4/Cyclin D1 (Homo sapiens, UniProt P11802); experiment: NanoBRET live-cell target engagement, NanoLuc-CDK4/Cyclin D1 in HEK-293; type: binding; settings: CDK4/D1, 10µM
CDK5/CDK5R1 = CDK5/CDK5R1 (Homo sapiens, UniProt Q00535); experiment: NanoBRET live-cell target engagement, CDK5-NanoLuc/CDK5R1 in HEK-293; type: binding; settings: CDK5/CDK5R1, 10µM
CDK6/Cyclin D1 = CDK6/Cyclin D1 (Homo sapiens, UniProt Q00534); experiment: NanoBRET live-cell target engagement, NanoLuc-CDK6/Cyclin D1 in HEK-293; type: binding; settings: CDK6/D1, 10µM
CDK7 = CDK7 (Homo sapiens, UniProt P50613); experiment: NanoBRET live-cell target engagement, NanoLuc-CDK7 in HEK-293; type: binding; settings: CDK7, 10µM
CDK8/Cyclin C = CDK8/Cyclin C (Homo sapiens, UniProt P49336); experiment: NanoBRET live-cell target engagement, NanoLuc-CDK8/Cyclin C in HEK-293; type: binding; settings: CDK8/C, 10µM
CDK9/Cyclin K = CDK9/Cyclin K (Homo sapiens, UniProt P50750); experiment: NanoBRET live-cell target engagement, NanoLuc-CDK9/Cyclin K in HEK-293; type: binding; settings: CDK9/K, 10µM
CDK11B/Cyclin L2 = CDK11B/Cyclin L2 (Homo sapiens, UniProt P21127); experiment: NanoBRET live-cell target engagement, CDK11B-NanoLuc/Cyclin L2 in HEK-293; type: binding; settings: CDK11b/L2, 10µM
CDK12/Cyclin K = CDK12/Cyclin K (Homo sapiens, UniProt Q9NYV4); experiment: NanoBRET live-cell target engagement, CDK12-NanoLuc/Cyclin K in HEK-293; type: binding; settings: 10µM
CDK13/Cyclin K = CDK13/Cyclin K (Homo sapiens, UniProt Q14004); experiment: NanoBRET live-cell target engagement, CDK13-NanoLuc/Cyclin K in HEK-293; type: binding; settings: CDK13/K, 10µM
CDK14/Cyclin Y = CDK14/Cyclin Y (Homo sapiens, UniProt O94921); experiment: NanoBRET live-cell target engagement, CDK14-NanoLuc/Cyclin Y in HEK-293; type: binding; settings: CDK14/Y, 10µM
CDK15/Cyclin Y = CDK15/Cyclin Y (Homo sapiens, UniProt Q96Q40); experiment: NanoBRET live-cell target engagement, NanoLuc-CDK15/Cyclin Y in HEK-293; type: binding; settings: CDK15/Y, 10µM
CDK16/Cyclin Y = CDK16/Cyclin Y (Homo sapiens, UniProt Q00536); experiment: NanoBRET live-cell target engagement, CDK16-NanoLuc/Cyclin Y in HEK-293; type: binding; settings: CDK16/Y, 10µM
CDK17/Cyclin Y = CDK17/Cyclin Y (Homo sapiens, UniProt Q00537); experiment: NanoBRET live-cell target engagement, CDK17-NanoLuc/Cyclin Y in HEK-293; type: binding; settings: CDK17/Y, 10µM
CDK18/Cyclin Y = CDK18/Cyclin Y (Homo sapiens, UniProt Q07002); experiment: NanoBRET live-cell target engagement, CDK18-NanoLuc/Cyclin Y in HEK-293; type: binding; settings: CDK18/Y, 10µM
CDK20/Cyclin H = CDK20/Cyclin H (Homo sapiens, UniProt Q8IZL9); experiment: NanoBRET live-cell target engagement, NanoLuc-CDK20/Cyclin H in HEK-293; type: binding; settings: 10µM
CDK19/Cyclin C = CDK19/Cyclin C (Homo sapiens, UniProt Q9BWU1); experiment: NanoBRET live-cell target engagement, NanoLuc-CDK19/Cyclin C in HEK-293; settings: 10µM
CDK10/Cyclin L2 = CDK10/Cyclin L2 (Homo sapiens, UniProt Q15131); experiment: NanoBRET live-cell target engagement, CDK10-NanoLuc/Cyclin L2 in HEK-293; settings: 10µM
[1] = average of replicates, read-out: Inhibition at 10µM (%) Average
[2] = read-out: Inhibition at 10µM (%) Replicate 1
[3] = read-out: Inhibition at 10µM (%) Replicate 2

Sequence of CDK17/Cyclin Y (Q00537 whole entry): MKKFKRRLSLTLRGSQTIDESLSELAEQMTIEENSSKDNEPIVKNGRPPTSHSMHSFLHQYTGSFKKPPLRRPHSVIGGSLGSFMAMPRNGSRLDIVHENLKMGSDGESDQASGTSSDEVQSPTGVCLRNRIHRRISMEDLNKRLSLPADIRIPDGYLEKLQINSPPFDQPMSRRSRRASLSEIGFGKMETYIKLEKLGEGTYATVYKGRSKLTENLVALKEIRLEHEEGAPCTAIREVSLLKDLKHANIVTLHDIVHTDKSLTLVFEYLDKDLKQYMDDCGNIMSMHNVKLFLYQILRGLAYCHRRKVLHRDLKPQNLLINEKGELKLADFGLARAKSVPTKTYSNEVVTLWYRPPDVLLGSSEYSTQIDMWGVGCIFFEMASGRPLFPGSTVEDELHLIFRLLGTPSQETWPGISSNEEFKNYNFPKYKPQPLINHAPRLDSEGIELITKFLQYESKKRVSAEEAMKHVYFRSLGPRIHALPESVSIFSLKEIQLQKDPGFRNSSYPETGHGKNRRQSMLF
Sequence of CDK17/Cyclin Y (Q8ND76 whole entry partner): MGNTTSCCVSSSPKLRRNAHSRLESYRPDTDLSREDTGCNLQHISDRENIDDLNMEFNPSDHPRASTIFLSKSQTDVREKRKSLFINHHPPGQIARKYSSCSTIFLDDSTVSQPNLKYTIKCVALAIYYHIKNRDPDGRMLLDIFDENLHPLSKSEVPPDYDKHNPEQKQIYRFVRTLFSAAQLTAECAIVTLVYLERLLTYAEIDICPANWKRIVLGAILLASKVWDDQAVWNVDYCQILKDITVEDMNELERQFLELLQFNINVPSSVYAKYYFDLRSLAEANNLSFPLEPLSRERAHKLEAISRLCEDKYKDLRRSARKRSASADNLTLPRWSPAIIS
Sequence of CDK12/Cyclin K (Q9NYV4 1-1481 isoform Q9NYV4-2): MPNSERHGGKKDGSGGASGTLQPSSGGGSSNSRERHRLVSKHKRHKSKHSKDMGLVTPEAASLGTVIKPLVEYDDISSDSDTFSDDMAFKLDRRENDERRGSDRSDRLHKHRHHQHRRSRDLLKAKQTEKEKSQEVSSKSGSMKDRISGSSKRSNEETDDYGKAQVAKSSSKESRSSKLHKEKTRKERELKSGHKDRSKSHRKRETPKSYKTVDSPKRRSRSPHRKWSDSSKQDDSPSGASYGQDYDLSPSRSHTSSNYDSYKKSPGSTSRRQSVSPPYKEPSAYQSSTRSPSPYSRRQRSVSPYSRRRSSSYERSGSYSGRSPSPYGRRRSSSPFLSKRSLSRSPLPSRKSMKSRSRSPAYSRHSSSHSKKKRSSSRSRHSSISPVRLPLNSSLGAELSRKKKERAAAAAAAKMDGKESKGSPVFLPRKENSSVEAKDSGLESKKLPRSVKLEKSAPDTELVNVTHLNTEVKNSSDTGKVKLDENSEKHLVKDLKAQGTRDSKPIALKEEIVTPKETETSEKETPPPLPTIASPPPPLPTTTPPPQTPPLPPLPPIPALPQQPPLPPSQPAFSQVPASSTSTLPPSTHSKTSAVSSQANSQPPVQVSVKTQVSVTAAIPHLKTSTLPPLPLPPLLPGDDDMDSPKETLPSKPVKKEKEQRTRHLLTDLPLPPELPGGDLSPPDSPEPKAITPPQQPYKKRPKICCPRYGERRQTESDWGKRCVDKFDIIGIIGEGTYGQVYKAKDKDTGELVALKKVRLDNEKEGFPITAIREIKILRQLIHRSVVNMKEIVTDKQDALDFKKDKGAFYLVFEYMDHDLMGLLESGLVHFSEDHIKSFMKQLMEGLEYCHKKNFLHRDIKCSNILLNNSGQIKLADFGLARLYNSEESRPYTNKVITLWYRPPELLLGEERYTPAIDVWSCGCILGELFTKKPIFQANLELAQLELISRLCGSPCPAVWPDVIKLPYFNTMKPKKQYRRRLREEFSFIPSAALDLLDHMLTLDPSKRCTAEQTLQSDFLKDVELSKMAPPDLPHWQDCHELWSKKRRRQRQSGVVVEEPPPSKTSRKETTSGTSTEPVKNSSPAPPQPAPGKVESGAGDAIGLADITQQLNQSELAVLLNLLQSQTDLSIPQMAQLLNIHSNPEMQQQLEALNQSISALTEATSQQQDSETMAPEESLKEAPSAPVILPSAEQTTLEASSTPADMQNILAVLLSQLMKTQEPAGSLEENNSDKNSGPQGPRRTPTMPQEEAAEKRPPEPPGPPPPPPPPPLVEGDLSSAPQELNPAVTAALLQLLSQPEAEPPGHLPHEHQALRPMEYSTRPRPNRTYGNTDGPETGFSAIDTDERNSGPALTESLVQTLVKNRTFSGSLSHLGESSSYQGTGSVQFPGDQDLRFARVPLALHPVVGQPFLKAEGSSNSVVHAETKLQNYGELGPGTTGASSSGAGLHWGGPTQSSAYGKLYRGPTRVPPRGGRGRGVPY
Sequence of CDK12/Cyclin K (O75909 whole entry partner): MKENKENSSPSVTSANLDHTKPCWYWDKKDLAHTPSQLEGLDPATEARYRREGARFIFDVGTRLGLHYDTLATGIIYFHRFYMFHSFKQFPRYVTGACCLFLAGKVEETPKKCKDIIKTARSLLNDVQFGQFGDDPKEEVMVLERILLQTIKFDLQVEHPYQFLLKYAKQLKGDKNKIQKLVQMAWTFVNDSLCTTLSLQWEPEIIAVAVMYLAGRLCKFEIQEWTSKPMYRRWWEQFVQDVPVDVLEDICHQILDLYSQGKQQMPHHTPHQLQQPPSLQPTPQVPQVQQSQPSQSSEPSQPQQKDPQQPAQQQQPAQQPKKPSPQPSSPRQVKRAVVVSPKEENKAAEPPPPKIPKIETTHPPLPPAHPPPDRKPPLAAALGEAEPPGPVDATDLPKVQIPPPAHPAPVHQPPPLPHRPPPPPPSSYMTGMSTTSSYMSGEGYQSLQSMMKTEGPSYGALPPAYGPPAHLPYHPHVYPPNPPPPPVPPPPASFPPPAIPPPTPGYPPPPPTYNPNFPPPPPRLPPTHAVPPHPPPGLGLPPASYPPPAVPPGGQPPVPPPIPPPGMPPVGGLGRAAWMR
Sequence of CDK18/Cyclin Y (Q07002 whole entry): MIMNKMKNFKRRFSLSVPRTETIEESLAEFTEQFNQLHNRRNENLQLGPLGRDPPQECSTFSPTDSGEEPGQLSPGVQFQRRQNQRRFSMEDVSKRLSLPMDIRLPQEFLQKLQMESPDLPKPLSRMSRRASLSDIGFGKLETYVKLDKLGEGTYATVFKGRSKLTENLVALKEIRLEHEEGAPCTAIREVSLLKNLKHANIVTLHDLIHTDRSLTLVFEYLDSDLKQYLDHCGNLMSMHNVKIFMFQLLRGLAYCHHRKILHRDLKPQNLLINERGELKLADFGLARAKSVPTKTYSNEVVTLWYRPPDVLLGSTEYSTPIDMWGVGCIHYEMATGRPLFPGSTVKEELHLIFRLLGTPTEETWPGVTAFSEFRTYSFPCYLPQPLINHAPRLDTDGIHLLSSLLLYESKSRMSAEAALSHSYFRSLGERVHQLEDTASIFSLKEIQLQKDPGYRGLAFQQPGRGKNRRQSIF
Sequence of CDK18/Cyclin Y (Q8ND76 whole entry partner): as the sequence (Q8ND76 whole entry partner) above
Sequence of CDK9/Cyclin K (P50750 whole entry): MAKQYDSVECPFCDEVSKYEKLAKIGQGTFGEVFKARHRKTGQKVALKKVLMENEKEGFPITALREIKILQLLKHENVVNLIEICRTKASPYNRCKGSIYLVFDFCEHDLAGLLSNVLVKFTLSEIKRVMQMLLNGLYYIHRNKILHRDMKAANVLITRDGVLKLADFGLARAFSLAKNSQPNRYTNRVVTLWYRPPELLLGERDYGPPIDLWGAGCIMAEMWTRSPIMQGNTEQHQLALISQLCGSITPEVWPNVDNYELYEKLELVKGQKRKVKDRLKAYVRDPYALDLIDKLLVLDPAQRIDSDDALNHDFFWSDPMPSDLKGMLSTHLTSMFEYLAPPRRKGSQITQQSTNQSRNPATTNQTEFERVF
Sequence of CDK9/Cyclin K (O75909 whole entry partner): as the sequence (O75909 whole entry partner) above
Sequence of CDK7 (P50613 whole entry): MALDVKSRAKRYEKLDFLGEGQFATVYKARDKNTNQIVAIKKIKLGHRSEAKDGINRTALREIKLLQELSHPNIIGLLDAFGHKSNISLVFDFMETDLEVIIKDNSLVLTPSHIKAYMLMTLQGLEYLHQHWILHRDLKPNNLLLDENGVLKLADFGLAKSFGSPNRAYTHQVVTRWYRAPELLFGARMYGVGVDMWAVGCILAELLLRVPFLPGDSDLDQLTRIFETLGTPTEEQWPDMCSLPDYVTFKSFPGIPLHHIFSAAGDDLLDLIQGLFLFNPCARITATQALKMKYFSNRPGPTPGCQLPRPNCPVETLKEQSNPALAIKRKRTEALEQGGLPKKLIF
Sequence of CDK8/Cyclin C (P49336 whole entry): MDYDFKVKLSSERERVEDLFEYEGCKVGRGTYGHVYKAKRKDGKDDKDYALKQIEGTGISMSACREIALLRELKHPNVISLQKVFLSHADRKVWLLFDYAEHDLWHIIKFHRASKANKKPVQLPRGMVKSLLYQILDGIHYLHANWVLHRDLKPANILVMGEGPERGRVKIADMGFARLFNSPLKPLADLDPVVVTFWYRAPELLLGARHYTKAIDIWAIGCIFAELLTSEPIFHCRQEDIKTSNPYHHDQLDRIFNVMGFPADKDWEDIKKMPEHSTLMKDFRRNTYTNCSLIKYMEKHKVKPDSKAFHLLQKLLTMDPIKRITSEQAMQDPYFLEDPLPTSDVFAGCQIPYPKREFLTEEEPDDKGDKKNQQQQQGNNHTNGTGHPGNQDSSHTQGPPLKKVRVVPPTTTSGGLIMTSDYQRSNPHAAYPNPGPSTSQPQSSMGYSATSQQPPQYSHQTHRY
Sequence of CDK8/Cyclin C (P24863 whole entry partner): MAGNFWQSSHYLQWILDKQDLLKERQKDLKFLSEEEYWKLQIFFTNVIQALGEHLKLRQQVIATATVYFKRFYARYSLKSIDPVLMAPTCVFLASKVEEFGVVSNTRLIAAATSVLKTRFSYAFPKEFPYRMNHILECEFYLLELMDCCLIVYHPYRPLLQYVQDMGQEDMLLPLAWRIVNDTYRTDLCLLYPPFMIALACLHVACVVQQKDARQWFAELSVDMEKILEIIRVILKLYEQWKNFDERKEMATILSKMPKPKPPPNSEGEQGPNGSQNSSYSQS

With `COc1cc(F)ccc1-c1ncnc(Nc2cccc(C[S@](C)(=N)=O)c2)n1` [Atuveciclib] the inhibition at 10 µM (CDK1/Cyclin E1; [1]) was 16.6%, the inhibition at 10 µM (CDK1/Cyclin E1; [2]) was 19.4% and the inhibition at 10 µM (CDK1/Cyclin E1; [3]) was 13.8%. It also gave an inhibition at 10 µM (CDK2/Cyclin E1; [1]) of 41.7%, an inhibition at 10 µM (CDK2/Cyclin E1; [2]) of 42.9% and an inhibition at 10 µM (CDK2/Cyclin E1; [3]) of 40.5%. The inhibition at 10 µM (CDK3/Cyclin E1; [1]) was 48.4%, the inhibition at 10 µM (CDK3/Cyclin E1; [2]) was 47.3% and the inhibition at 10 µM (CDK3/Cyclin E1; [3]) was 49.6%. The inhibition at 10 µM (CDK4/Cyclin D1; [1]) was 31.5%, the inhibition at 10 µM (CDK4/Cyclin D1; [2]) was 53.7% and the inhibition at 10 µM (CDK4/Cyclin D1; [3]) was 9.3%. It also gave an inhibition at 10 µM (CDK5/CDK5R1; [1]) of 26.1%, an inhibition at 10 µM (CDK5/CDK5R1; [2]) of 23.9% and an inhibition at 10 µM (CDK5/CDK5R1; [3]) of 28.3%. The inhibition at 10 µM (CDK6/Cyclin D1; [1]) was 64.1%, the inhibition at 10 µM (CDK6/Cyclin D1; [2]) was 61.7% and the inhibition at 10 µM (CDK6/Cyclin D1; [3]) was 66.4%. For the same molecule, the inhibition at 10 µM (CDK7; [1]) was 16.8%, the inhibition at 10 µM (CDK7; [2]) was 22% and the inhibition at 10 µM (CDK7; [3]) was 11.6%. For the same molecule, the inhibition at 10 µM (CDK8/Cyclin C; [1]) was 3%, the inhibition at 10 µM (CDK8/Cyclin C; [2]) was -1% and the inhibition at 10 µM (CDK8/Cyclin C; [3]) was 7%. It also gave an inhibition at 10 µM (CDK9/Cyclin K; [1]) of 97.9%, an inhibition at 10 µM (CDK9/Cyclin K; [2]) of 98.1% and an inhibition at 10 µM (CDK9/Cyclin K; [3]) of 97.6%. It also gave an inhibition at 10 µM (CDK11B/Cyclin L2; [1]) of 7.4%, an inhibition at 10 µM (CDK11B/Cyclin L2; [2]) of 11.9% and an inhibition at 10 µM (CDK11B/Cyclin L2; [3]) of 2.9%. It also gave an inhibition at 10 µM (CDK12/Cyclin K; read-out: Inhibition at 10µM (%) Average, CDK12/K, average of replicates) of 8.2%, an inhibition at 10 µM (CDK12/Cyclin K; read-out: Inhibition at 10µM (%) Replicate 1, CDK12/K) of 3% and an inhibition at 10 µM (CDK12/Cyclin K; read-out: Inhibition at 10µM (%) Replicate 2, CDK12/K) of 13.3%. The inhibition at 10 µM (CDK13/Cyclin K; [1]) was 4.8%, the inhibition at 10 µM (CDK13/Cyclin K; [2]) was 8% and the inhibition at 10 µM (CDK13/Cyclin K; [3]) was 1.6%. It also gave an inhibition at 10 µM (CDK14/Cyclin Y; [1]) of 3%, an inhibition at 10 µM (CDK14/Cyclin Y; [2]) of 8.4% and an inhibition at 10 µM (CDK14/Cyclin Y; [3]) of -2.5%. For the same molecule, the inhibition at 10 µM (CDK15/Cyclin Y; [1]) was 4.5%, the inhibition at 10 µM (CDK15/Cyclin Y; [2]) was 2% and the inhibition at 10 µM (CDK15/Cyclin Y; [3]) was 7.1%. The inhibition at 10 µM (CDK16/Cyclin Y; [2]) was 39.3%, the inhibition at 10 µM (CDK16/Cyclin Y; [3]) was 37.9% and the inhibition at 10 µM (CDK17/Cyclin Y; [1]) was 31%. For the same molecule, the inhibition at 10 µM (CDK17/Cyclin Y; [2]) was 30.9%, the inhibition at 10 µM (CDK17/Cyclin Y; [3]) was 31.1% and the inhibition at 10 µM (CDK18/Cyclin Y; [1]) was 19.9%. The inhibition at 10 µM (CDK18/Cyclin Y; [2]) was 17.3%, the inhibition at 10 µM (CDK18/Cyclin Y; [3]) was 22.4% and the inhibition at 10 µM (CDK20/Cyclin H; read-out: Inhibition at 10µM (%) Replicate 1, CDK20/H) was 1.3%. For the same molecule, the inhibition at 10 µM (CDK20/Cyclin H; read-out: Inhibition at 10µM (%) Replicate 2, CDK20/H) was 1.3%, the inhibition at 10 µM (CDK19/Cyclin C; read-out: Inhibition at 10µM (%) Average, CDK19/C, average of replicates) was 11.1% and the inhibition at 10 µM (CDK19/Cyclin C; read-out: Inhibition at 10µM (%) Replicate 1, CDK19/C) was 12.3%. For the same molecule, the inhibition at 10 µM (CDK19/Cyclin C; read-out: Inhibition at 10µM (%) Replicate 2, CDK19/C) was 9.9%, the inhibition at 10 µM (CDK10/Cyclin L2; read-out: Inhibition at 10µM (%) Average, CDK10/L2, average of replicates) was 6.3% and the inhibition at 10 µM (CDK10/Cyclin L2; read-out: Inhibition at 10µM (%) Replicate 1, CDK10/L2) was 9.2%. For the same molecule, the inhibition at 10 µM (CDK10/Cyclin L2; read-out: Inhibition at 10µM (%) Replicate 2, CDK10/L2) was 3.4%.
